Data on 18 compounds can be found in patent publication US20240174650A1, “8-(PICOLINAMIDE) SUBSTITUTED COUMARIN COMPOUND, AND PREPARATION METHOD THEREFOR AND USE THEREOF” (LONGIVITRON (SUZHOU) BIOTECHNOLOGY CO., LTD, priority 2021, published 2024).

In data set [1] the test system is neuroblastoma cell SH-SY5Y. Put plainly: Cytotoxicity assay for neuroblastoma cell SH-SY5Y (AlamarBlue). Type of data set: cell-based. Conditions: 48 hours incubation. How it is done: (§1) Cytotoxicity assay of compounds for neuroblastoma cell SH-SY5Y:
(§2) This testing example investigates the cytotoxicity of compounds against neuroblastoma cell SH-SY5Y, in order to determine the dose for the Parkinson ? s cell model protection assay in the next step. For the cytotoxicity assay, the specific test steps are as follows: the cultured neuroblastoma cell SH-SY5Y was grown in a 96-well cell culture plate with approximately 6000 cells per well. After overnight incubation, the culture medium was exchanged for a new one, and each well was added with different concentrations of Compounds 1-18 ([…], 10, 20, 50, 100, 200 μM), and different control samples were arranged. The cells were continued to be incubated at 37° C. for 48 hours. Each well was added with 10 μL of the dye AlamarBlue® (Invitrogen), and the cells were continued to be incubated at 37° C. for approximately 2 hours and then a color change of the staining solution could be observed; the change of absorption values was obtained on the enzyme-labeled instrument (Ex: 530 nm; Em: 590 nm). In the assay, there were 2 parallel tests for each compound with each concentration. The results were processed with software GraphPad Prism to calculate the cytotoxicity CC50 of each compound. The results are shown in Table 2 (in which Taxol is the positive control group).
Background: Alamar Blue is a resazurin reagent that responds to reducing activity.

Data set [2] concerns the target SIRT2 recombinant protein (Homo sapiens (Human), UniProt Q8IXJ6). Put plainly: In vitro activity screening of SIRT2 inhibitors (fluorogenic Ac-Gln-Pro-Lys-[Lys-(Ac)]-AMC peptide deacetylation assay). Conditions: recombinant SIRT2 1.0 μg, 500 μM NAD+, 50 μM substrate peptide, 37° C. 2 hours. Type of data set: biochemical. The source says:
In vitro activity screening of SIRT2 inhibitors:
The full-length expression sequence ORF of the human SIRT2 gene is 1170 bp (Accession No.: NM_012237), and the molecular mass of the expressed SIRT2 protein is 43 KDa. The SIRT2 recombinant protein is expressed and purified according to the following steps: the SIRT2 gene was cloned into the expression vector pET-15b (primers were shown as follows: forward: 5 ? -[…]-3 ? (SEQ ID NO. 1); backward: 5 ? -[…]-3 ? (SEQ ID NO. 2)), and the expressed SIRT2 protein contained His6-tag at the N-terminus for purification. The plasmid was transformed into E. coli […], and expressed for 6 h at 18° C. with 1 mM IPTG induction. The induced E. coli cells were collected by centrifugation and frozen at −20° C. Bacterial pellet was re-suspended in 15 mL of cell lysis buffer (50 mM Tris-HCl pH 8.0, 300 mM NaCl), and the bacterial sample was disrupted by sonication for 10 min, and then centrifuged (12000×g, 20 min) at 4° C. to remove the precipitates.
The supernatant was purified by Ni^2+ NTA-agarose matrix column (Qiagen). In the purification process, the unbound proteins were first washed away with the loading buffer (50 mM Tris-HCl pH 8.0, 300 mM NaCl), subsequently, the non-specifically bound proteins were washed away by gradually increasing the concentration of imidazole (0-200 mM), and finally the purified recombinant SIRT2 protein was obtained. Imidazole was removed using a PD-10 column and the concentration of purified SIRT2 protein was determined by the Bradford method. The recombinant SIRT2 protein was stored at −20° C. in a preservation buffer (50 mM Tris-HCl, pH 8.0, 265 mM NaCl, 0.2 mM DTT, and 10% glycerol).
The SIRT2 enzyme activity assay is established based on the published studies. Firstly, peptide segment Ac-Gln-Pro-Lys-[Lys-(Ac)]-AMC, the substrate of SIRT2, was synthesized to serve as a substrate in the enzyme activity assay. The attached fluorescent label was AMC (7-Amino-4-methylcoumarin). […] The reaction was carried out at 37° C. for 2 hours. […] Afterwards, 60 μL of sample treating solution (50 mM Tris-HCl, pH 8.0, 100 mM NaCl, Trypsin and 4 mM nicotinamide) was added to the reaction solution and mixed, and placed at 37° C. for 20 min. Absorption intensity was measured by the enzyme-labeled instrument configured as an excitation light of 355 nm and an absorption light of 460 nm.

Data set [3] has as its system SH-SY5Y cells damaged by neurotoxicant MPP+. The data set is described as follows: Protective activity on Parkinson's disease cell model (MPP+ treated SH-SY5Y, cell viability). As to conditions: compound 10 μM, MPP+ 5 mM, 48 h; FIG. 1. It counts as cell-based. How it is done:
Screening for compounds with protective activity on Parkinson ? s disease cell model:
For the screening test for protective effects on the Parkinson ? s disease cell model, the commonly recognized neurotoxicant MPP^+ (5 mM) is used on the neuroblastoma cell SH-SY5Y to construct the Parkinson ? s disease cell model. This neurotoxicant acts on the SH-SY5Y cell, induces abnormal accumulation of α-synuclein in the cells and causes Parkinson ? s disease-like neurotoxicity. The specific test method is as follows: approximately 20000 SH-SY5Y cells were grown in a 96-well cell plate and cultured overnight. […] The cell viability of the Parkinson ? s disease cell model was determined to assess the protective effects of the compounds on the Parkinson ? s cell model. The test data were analyzed by using GraphPad Prism.

Data set [4] in a line: Cytotoxicity assay for neuroblastoma cell SH-SY5Y (AlamarBlue). Type of data set: cell-based. As to conditions: human, SH-SY5Y neuroblastoma cells, 48 hours incubation. The procedure: as §1, §2

SIRT2 recombinant protein, sequence (Q8IXJ6 whole entry): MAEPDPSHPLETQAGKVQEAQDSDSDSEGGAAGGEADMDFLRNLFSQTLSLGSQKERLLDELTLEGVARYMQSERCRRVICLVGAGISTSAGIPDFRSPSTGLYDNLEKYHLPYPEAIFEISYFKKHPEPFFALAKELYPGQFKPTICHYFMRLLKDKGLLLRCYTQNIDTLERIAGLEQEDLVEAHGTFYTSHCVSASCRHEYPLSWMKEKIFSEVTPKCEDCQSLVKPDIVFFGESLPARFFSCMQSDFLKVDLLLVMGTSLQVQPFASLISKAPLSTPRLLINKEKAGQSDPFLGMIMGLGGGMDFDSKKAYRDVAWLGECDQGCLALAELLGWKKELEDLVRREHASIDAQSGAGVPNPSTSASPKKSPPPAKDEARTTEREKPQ

Consider `CS(=O)(=O)c1ccc(NS(=O)(=O)c2cc(NC(=O)c3cccc4ccc(=O)oc34)ccn2)cc1` [Compound 8, N-(2-(N-(4-methylsulfonylphenyl)aminosulfonyl)-pyridin-4-yl)-2-oxo-2H-chromene-8-amide], for which the CC50 in data set [1] is given as >20 μmol[…]L^−1. In data set [2], the IC50 (usually the concentration at which inhibition is half-maximal) came to 896 nM.

On to `O=C(Nc1ccnc(S(=O)(=O)Nc2ccc(C(F)(F)F)cc2)c1)c1cccc2ccc(=O)oc12` [Compound 9, N-(2-(N-(4-trifluoromethylphenyl)aminosulfonyl)-pyridin-4-yl)-2-oxo-2H-chromene-8-amide], for which the CC50 in data set [1] is reported as >20 μmol[…]L^−1. The IC50 in data set [2] worked out at 90 nM.

With `Cc1ccc(NS(=O)(=O)c2cc(NC(=O)c3cccc4ccc(=O)oc34)ccn2)cc1` [Compound 4, N-(2-(N-(4-methylphenyl)aminosulfonyl)-pyridin-4-yl)-2-oxo-2H-chromene-8-amide], the CC50 in data set [1] is on record as >20 μmol[…]L^−1. In data set [2], the IC50 was 356 nM.

On to `O=C(Nc1ccnc(S(=O)(=O)Nc2ccc(O)cc2)c1)c1cccc2ccc(=O)oc12` [Compound 11, N-(2-(N-(4-hydroxyphenyl)aminosulfonyl)-pyridin-4-yl)-2-oxo-2H-chromene-8-amide], for which the CC50 in data set [1] was >20 μmol[…]L^−1. For the same compound, in data set [2], the IC50 amounted to 896 nM.

As to `O=C(Nc1ccnc(S(=O)(=O)Nc2ccc(Cl)c(Br)c2)c1)c1cccc2ccc(=O)oc12` [Compound 14, N-(2-(N-(3-bromo-4-chlorophenyl)aminosulfonyl)-pyridin-4-yl)-2-oxo-2H-chromene-8-amide], in data set [1], the CC50 is given as >20 μmol[…]L^−1. Moreover, the “protective effect against SH-SY5Y cell damage by MPP+ (cell viability)” value (“protective effect” for short) in data set [3] was “more obvious protective effects”. For the same compound, the concentration for half-maximal inhibition (IC50) in data set [2] worked out at 195 nM.

`O=C(Nc1ccnc(S(=O)(=O)Nc2cccc3ncccc23)c1)c1cccc2ccc(=O)oc12` [Compound 17, N-(2-(N-(quinoline-5-yl)aminosulfonyl)-pyridin-4-yl)-2-oxo-2H-chromene-8-amide]: in data set [1], the CC50 was >20 μmol[…]L^−1. Besides, in data set [2], the IC50 is 871 nM.

With `O=C(Nc1ccnc(S(=O)(=O)Nc2cccc([N+](=O)[O-])c2)c1)c1cccc2ccc(=O)oc12` [Compound 5, N-(2-(N-(3-nitrophenyl)aminosulfonyl)-pyridin-4-yl)-2-oxo-2H-chromene-8-amide], the CC50 in data set [1] is listed as >20 μmol[…]L^−1. For the same compound, in data set [2], the IC50 was 180 nM.

Take `O=C(Nc1ccnc(S(=O)(=O)Nc2cc(Cl)cc3ccccc23)c1)c1cccc2ccc(=O)oc12` [Compound 16, N-(2-(N-(3-chloronaphth-1-yl)aminosulfonyl)-pyridin-4-yl)-2-oxo-2H-chromene-8-amide]: in data set [1], the CC50 is recorded as >20 μmol[…]L^−1. Besides, the IC50 in data set [2] is 86 nM.

As to `O=C(Nc1ccnc(S(=O)(=O)Nc2cccc3ccc(Br)cc23)c1)c1cccc2ccc(=O)oc12` [Compound 15, N-(2-(N-(7-bromonaphth-1-yl)aminosulfonyl)-pyridin-4-yl)-2-oxo-2H-chromene-8-amide], the CC50 in data set [1] was >20 μmol[…]L^−1. Further, the “protective effect” value in data set [3] is recorded as “more obvious protective effects”. In data set [2], the IC50 came to 154 nM.

Regarding `O=C(Nc1ccnc(S(=O)(=O)Nc2ccc(-c3ccccc3)cc2)c1)c1cccc2ccc(=O)oc12` [Compound 10, N-(2-(N-(4-phenylphenyl)aminosulfonyl)-pyridin-4-yl)-2-oxo-2H-chromene-8-amide], the CC50 in data set [1] is >20 μmol[…]L^−1. Besides, the half-inhibitory concentration (IC50) in data set [2] is 652 nM.

Take `O=C(Nc1ccnc(S(=O)(=O)Nc2cccc(Cl)c2)c1)c1cccc2ccc(=O)oc12` [Compound 2, N-(2-(N-(3-chlorophenyl)aminosulfonyl)-pyridin-4-yl)-2-oxo-2H-chromene-8-amide]: the CC50 in data set [1] is on record as >20 μmol[…]L^−1. Also, the half-maximal inhibitory concentration (IC50) in data set [2] is 359 nM.

With `O=C(Nc1ccnc(S(=O)(=O)Nc2ccc(F)c(F)c2)c1)c1cccc2ccc(=O)oc12` [Compound 13, N-(2-(N-(3,4-difluorophenyl)aminosulfonyl)-pyridin-4-yl)-2-oxo-2H-chromene-8-amide], the CC50 in data set [1] is >20 μmol[…]L^−1. In addition, the “protective effect” value in data set [3] was “more obvious protective effects”. Further, the concentration for half-maximal inhibition (IC50) in data set [2] is 80 nM.

In the case of `O=C(Nc1ccnc(S(=O)(=O)Nc2ccc(F)cc2)c1)c1cccc2ccc(=O)oc12` [Compound 7, N-(2-(N-(4-fluorophenyl)aminosulfonyl)-pyridin-4-yl)-2-oxo-2H-chromene-8-amide], in data set [1], the CC50 is recorded as >20 μmol[…]L^−1. The IC50 in data set [2] worked out at 120 nM.

Take `COc1ccc(NS(=O)(=O)c2cc(NC(=O)c3cccc4ccc(=O)oc34)ccn2)cc1` [Compound 12, N-(2-(N-(4-methoxylphenyl)aminosulfonyl)-pyridin-4-yl)-2-oxo-2H-chromene-8-amide]: the CC50 in data set [1] is reported as >20 μmol[…]L^−1. Moreover, the IC50 in data set [2] was determined as 2360 nM.

`CC(=O)O[C@H]1C(=O)[C@@]2(C)[C@H]([C@H](OC(=O)c3ccccc3)[C@]3(O)C[C@H](OC(=O)[C@H](O)[C@@H](NC(=O)c4ccccc4)c4ccccc4)C(C)=C1C3(C)C)[C@]1(OC(C)=O)CO[C@@H]1C[C@@H]2O` [Taxol, reference compound] had a CC50 at 48 h in data set [4] of 21 nM.

With `O=C(Nc1ccnc(S(=O)(=O)Nc2ccc(Cl)cc2)c1)c1cccc2ccc(=O)oc12` [Compound 1, N-(2-(N-(4-chlorophenyl)aminosulfonyl)-pyridin-4-yl)-2-oxo-2H-chromene-8-amide], the CC50 in data set [1] was >20 μmol[…]L^−1. For the same compound, in data set [3], the “protective effect” value is reported as “more obvious protective effects”. Moreover, the IC50 in data set [2] stood at 86 nM.

Consider `O=C(Nc1ccnc(S(=O)(=O)Nc2ccccc2Cl)c1)c1cccc2ccc(=O)oc12` [Compound 3, N-(2-(N-(2-chlorophenyl)aminosulfonyl)-pyridin-4-yl)-2-oxo-2H-chromene-8-amide], for which the CC50 in data set [1] is >20 μmol[…]L^−1. For the same compound, in data set [2], the IC50 was found to be 1230 nM.

With `N#Cc1ccccc1NS(=O)(=O)c1cc(NC(=O)c2cccc3ccc(=O)oc23)ccn1` [Compound 6, N-(2-(N-(2-cyanophenyl)aminosulfonyl)-pyridin-4-yl)-2-oxo-2H-chromene-8-amide], the CC50 in data set [1] is >20 μmol[…]L^−1. Besides, the IC50 in data set [2] was 1700 nM.
